Assay results from patent US20130217778A1, “METHODS AND COMPOSITIONS FOR THE IMPROVEMENT OF SKELETAL MUSCLE FUNCTION IN A MAMMAL” (priority 2010, published 2013).

Assays:
Format in all cases: cell-based
[1] = system: normal human muscle tissue (mBAM); test: MFAS tetanic force of mBAMs from normal human vastus lateralis muscle cells; details: 3-4 days of exposure, FIGS. 7A-7D
Protocol: (§1) High glucose tissue culture medium (4.5 g/l) was used in all experiments to maintain glucose levels well above normal human blood plasma levels (0.9 to 1.8 g/l) and, thereby, minimize drug action through increased glucose availability to the muscle cells. Varying concentrations of metformin (Sigma-Aldrich Cat. No. D15,095-9; 1,1-dimethylbiguanide hydrochloride) were added to tissue culture medium of mBAMs when the mBAMs had reached a plateau of maximal tetanic force, which was measured in a MyoForce Analysis System (MFAS™) 24 hours later. Every 24 hours, fresh metformin was added to fresh tissue culture medium, and tetanic forces were measured every 24 hours for 3-4 days. Fatigue was assayed after 3-4 days of metformin treatment by 15-20 repetitive tetanic stimulations of each mBAM at 14V, 60 Hz for 2 seconds every 4-5 seconds. Force is determined after each stimulation and compared to the initial force determined after the first stimulation relative to untreated controls. (Mean±S.E.M. of 3-8 samples per group was calculated and statistical analyses performed by t-tests.)

[2] = system: human Duchenne muscular dystrophy (DMD) muscle tissue (mBAM); test: MFAS fatigue assay of human DMD mBAMs; details: low concentrations, FIGS. 10A-10C
Protocol: as §1
The immortalized muscle cells were tissue engineered into contractile muscle tissue (mBAMs), and muscle force and fatigue were measured as described above. High glucose tissue culture medium (4.5 g/l) was used to maintain glucose levels well above normal human blood plasma levels (0.9 to 1.8 g/l) and, thereby, minimize drug action through increased glucose availability to the muscle cells. […] Every 24 hours, fresh biguanide was added in fresh medium and tetanic force measured for a total of 3-4 days.

[3] = system: mdx murine muscle tissue (mBAM); test: MFAS maximal tetanic force of mBAMs from mdx mouse muscle cells; details: low concentrations experiment, four days of exposure, FIG. 4A
Text: (§2) Conditionally immortalized skeletal muscle cells from the mdx mouse muscle (Morgan et al., Dev Biol. 162: 486-498, 1994) were tissue engineered into contractile muscle tissue (mBAMs), as described herein. (See also, e.g., Vandenburgh et al., Muscle and Nerve 37: 438-447, 2008; Vandenburgh et al., Treat NMD Meeting, 2009). Briefly, several hundred thousand proliferating myoblasts were mixed with a solution of extracellular matrix (collagen or fibrin) and pipetted into custom wells containing two flexible “posts” (FIG. 1A). The cell/matrix mixture gelled around the tops of the posts, forming a defined tubular structure (FIG. 1B). […] Maximal tetanic force (i.e., muscle strength) was measured by imaging the deflection of the attachment posts and converting the distance of deflection into force, as illustrated in FIGS. 2A-2B.
(§3) High glucose tissue culture medium (4.5 g/l) was used in all experiments to maintain glucose levels well above normal human blood plasma levels (0.9 to 1.8 g/l) and, thereby, minimize drug action through increased glucose availability to the muscle cells. Varying concentrations of metformin (Sigma-Aldrich Cat. No. D15,095-9; 1,1-dimethylbiguanide hydrochloride) were added to tissue culture medium of mBAMs when the mBAMs had reached a plateau of maximal tetanic force, which was measured in a MyoForce Analysis System (MFAS™) 24 hours later. […]

[4] = system: mdx murine skeletal muscle tissue (mBAM); test: MFAS fatigue assay (repetitive tetanic stimulation) of mdx mouse mBAMs; details: repetitive tetanic stimulation after 3-4 days of treatment, FIG. 4B
Text: as §2, §3

[5] = system: normal mouse skeletal muscle tissue (mBAM); test: MFAS tetanic force of mBAMs from normal mouse leg muscle cells
Protocol: as §1
High glucose tissue culture medium (4.5 g/l) was used in all experiments to maintain glucose levels well above normal human blood plasma levels (0.9 to 1.8 g/l) and, thereby, minimize drug action through increased glucose availability to the muscle cells.

[6] = system: human Duchenne muscular dystrophy (DMD) muscle tissue (mBAM); test: MFAS tetanic force of mBAMs from immortalized Duchenne muscular dystrophy muscle cells; details: 3-4 days of exposure, FIGS. 9A, 9B, 9D
Protocol: as §1
The immortalized muscle cells were tissue engineered into contractile muscle tissue (mBAMs), and muscle force and fatigue were measured as described above. […] Every 24 hours, fresh biguanide was added in fresh medium and tetanic force measured for a total of 3-4 days.

## CCCCNC(=N)NC(=N)N [buformin, Buformin]
[1]
  concentrations that increased tetanic force generated by the muscle tissue: less than 0.1 μg/ml
[2]
  effect on the rate of muscle fatigue with repetitive stimulations: decreased the rate of muscle fatigue

## CN(C)C(=N)NC(=N)N [metformin, 1,1-dimethylimido-dicarbonimidic diamide]
[3]
  concentration that significantly increased maximal tetanic force generated by mBAM muscle tissue: 0.0006 µg/mL
[4]
  concentration that significantly decreased the rate of muscle fatigue: 0.000001 µg/mL
[5]; 3-4 days of exposure, FIGS. 5A-5B
  concentration that increased tetanic force generated by the muscle tissue: 0.0006 µg/mL
[2]
  effect on the rate of muscle fatigue with repetitive stimulations: decreased the rate of muscle fatigue

## N=C(N)NC(=N)NCCc1ccccc1 [phenformin, Phenformin]
[2]
  effect on the rate of muscle fatigue with repetitive stimulations: decreased the rate of muscle fatigue

## CC(C)NC(=N)NC(=N)Nc1ccc(Cl)cc1 [proguanil, 1-(4-chlorophenyl)-5-isopropyl-biguanide]
[5]; after 3 days of treatment, FIG. 5C
  concentration that significantly increased tetanic force: 0.001 µg/mL
[1]
  concentrations that increased tetanic force generated by the muscle tissue: less than 0.0001 μg/ml
[6]
  concentrations that increased tetanic force generated by the muscle tissue: ≤ 0.00006 µg/mL
